Reference: patent US4379784A, “Pyrimidinyl ureido penicillins” (Dr. Karl Thomae Gesellschaft mit beschrankter Haftung, priority 1980, dated 1983)
In brackets after ≈: the same amount, converted by molar mass.

Assays:
[1] = tested on: Staphylococcus aureus SG 511; assay: series dilution test in the microtiter system (MIC), S. aureus SG 511; format: cell-based; conditions: SG511, 18 to 20 hours at 37° C., liquid medium, read-out: minimum inhibitory concentrations (MIC), S.aureus SG 511
Experimental: (§1) The method of the series dilution test in the microtiter system was used. The substances were tested for bacteriostasis in a liquid medium. The bacteriostatic activity was tested at the following concentrations:
(§2) A nutrient medium having the following composition was used: 10 gm of peptone, 8 gm of meat extract oxoid, 3 gm of sodium chloride, and 2 gm of sec. sodium phosphate were made up to […] with distilled water (pH 7.2 to 7.4). The age of the primary cultures was about 20 hours.
(§3) The bacterial suspension was adjusted using the photometer (according to "Eppendorf", test tube diameter 14 mm, filter 546 nm) by reference to the turbidity of a barium sulfate comparison suspension which was produced by a barium sulfate suspension formed by the addition of 3.0 ml of 1% barium chloride solution to 97 ml of 1% sulfuric acid. After adjustment, Streptococcus aronson was diluted in the ratio 1:15 and the other test pathogens were diluted in the ratio 1:1500 with a common salt solution.
(§4) 16 mg of the test substance were weighed in 10 ml measuring flasks and solvent was added up to the mark. Further dilutions in the series were made with distilled water or the solvent in question.
(§5) The depressions in the microtiter plates were filled with 0.2 ml of nutrient medium, 0.01 ml of the corresponding diluted substance and a drop of bacterial suspension (0.01 ml) and incubated for 18 to 20 hours at 37° C. A solvent check was carried out continuously at the same time.
(§6) The reading was taken macroscopically, and the respective limiting concentration (=the lowest concentration still having bacteriostatic activity) was determined.
(§7) The following were used as test organisms:
(§8) Staphylococcus aureus SG 511, Escherichia coli ATCC 11 775, Pseudomonas aeruginosa Hamburgensis and Pseudomonas aeruginosa BC 19, Serratia Marcescens ATCC 13 880, Klebsiella pneumoniae ATCC 10 031 and BC 6, Proteus mirabilis Hamburgensis, Proteus rettgeri BC 7, Enterobacter cloacae ATCC 13 047.
(§9) Table 1 below lists the minimum inhibitory concentrations (MIC) in μgm/ml determined for typical representatives of the compounds of the present invention. These are the sodium salts of compounds of the formula I where A=p-hydroxyphenyl and R has the indicated meanings.

[2] = tested on: Escherichia coli ATCC 11 775; assay: series dilution test in the microtiter system (MIC), E. coli ATCC 11775; format: cell-based; conditions: 18 to 20 hours at 37° C., liquid medium, read-out: minimum inhibitory concentrations (MIC), E.Coli ATCC 11775
Experimental: as §1, §2, §3, §4, §5, §6, §7, §8, §9

[3] = tested on: Pseudomonas aeruginosa Hamburgensis; assay: series dilution test in the microtiter system (MIC), Ps. aeruginosa Hamburgensis; format: cell-based; conditions: 18 to 20 hours at 37° C., liquid medium, read-out: minimum inhibitory concentrations (MIC), Pseud. aerug. Hbg.
Experimental: as §1, §2, §3, §4, §5, §6, §7, §8, §9

[4] = tested on: Pseudomonas aeruginosa BC 19; assay: series dilution test in the microtiter system (MIC), Ps. aeruginosa BC 19; format: cell-based; conditions: BC19, 18 to 20 hours at 37° C., liquid medium, read-out: minimum inhibitory concentrations (MIC), Pseud. aerug. BC 19
Experimental: as §1, §2, §3, §4, §5, §6, §7, §8, §9

[5] = tested on: Serratia Marcescens ATCC 13 880; assay: series dilution test in the microtiter system (MIC), Serratia marcescens ATCC 13880; format: cell-based; conditions: 18 to 20 hours at 37° C., liquid medium, read-out: minimum inhibitory concentrations (MIC), Serrat. marcesc. ATCC 13880
Experimental: as §1, §2, §3, §4, §5, §6, §7, §8, §9

[6] = tested on: Klebsiella pneumoniae ATCC 10 031; assay: series dilution test in the microtiter system (MIC), Klebsiella pneumoniae ATCC 10031; format: cell-based; conditions: 18 to 20 hours at 37° C., liquid medium, read-out: minimum inhibitory concentrations (MIC), Klebs.pneum. ATCC 10031
Experimental: as §1, §2, §3, §4, §5, §6, §7, §8, §9

[7] = tested on: Klebsiella pneumoniae BC 6; assay: series dilution test in the microtiter system (MIC), Klebsiella pneumoniae BC 6; format: cell-based; conditions: BC6, 18 to 20 hours at 37° C., liquid medium, read-out: minimum inhibitory concentrations (MIC), Klebs. pneum. BC 6
Experimental: as §1, §2, §3, §4, §5, §6, §7, §8, §9

[8] = tested on: Proteus mirabilis Hamburgensis; assay: series dilution test in the microtiter system (MIC), Proteus mirabilis Hamburgensis; format: cell-based; conditions: 18 to 20 hours at 37° C., liquid medium, read-out: minimum inhibitory concentrations (MIC), Prot. mirabilis Hbg
Experimental: as §1, §2, §3, §4, §5, §6, §7, §8, §9

Proteus rettgeri BC 7 = assay: series dilution test in the microtiter system (MIC), Proteus rettgeri BC 7; format: cell-based; conditions: Providencia rettgeri, BC7; 18 to 20 hours at 37° C., liquid medium; read-out: minimum inhibitory concentrations (MIC), Prot. geri BC
Experimental: as §1, §2, §3, §4, §5, §6, §7, §8, §9

[9] = tested on: Enterobacter cloacae ATCC 13 047; assay: series dilution test in the microtiter system (MIC), Enterobacter cloacae ATCC 13047; format: cell-based; conditions: 18 to 20 hours at 37° C., liquid medium, read-out: minimum inhibitory concentrations (MIC), Eb.cloacae ATCC 13047
Experimental: as §1, §2, §3, §4, §5, §6, §7, §8, §9

E. coli ATCC 11775 = assay: in vivo experimental E. coli infection in mice; set-up: species or system mice (female, NMRI strain); conditions: Escherichia coli, ATCC11775, sc, 168 h; subcutaneous, one treatment 1 hour post infectionem; 50% survival, 7 days observation
Experimental: (§10) A number of the compounds of the present invention were tested in vivo against experimental infections in mice. E. coli ATCC 11775 and Pseudomonas aeruginosa BC 19 were used as the pathogenic bacteria. An intraperitoneal infection was produced with 0.2 ml of a 5% mucin suspension of the bacteria. This corresponds to about 1.4×10^6 E. coli bacteria and 1.3×10^6 Pseudomonas bacteria per mouse. Female mice of the NMRI strain were divided into groups of 10 animals; two groups were untreated, the other groups were treated subcutaneously with various doses of the penicillins of the present invention, to determine the ED50 (dose at which 50% of the animals survived). For the E. coli infection, one treatment was given*. For the Pseudomonas infection, three treatments were given (1, 3 and 5 hours post-infectionem). *1 hour post infectionem In both cases, the observation period was 7 days.

[10] = tested on: Pseudomonas aeruginosa BC 19; assay: in vivo experimental Pseudomonas infection in mice; set-up: species or system mice (female, NMRI strain); conditions: BC19, sc, 168 h, subcutaneous, three treatments 1, 3 and 5 hours post-infectionem, 50% survival, 7 days observation, read-out: ED50, Pseud. Infection
Experimental: as §10, with “post-infectionem).” for “post-infectionem). *1 hour post infectionem”

MIC [1] | MIC [2] | MIC [3] | MIC [4] | MIC [5] | MIC [6] | MIC [7] | MIC [8] | MIC (Proteus rettgeri BC 7) | MIC [9] | Compound | ED50 (E. coli ATCC 11775) | ED50 [10]
0.5 µg/mL (≈ 0.698 µM) | 0.25 µg/mL (≈ 0.349 µM) | 2 µg/mL (≈ 2.79 µM) | 1 µg/mL (≈ 1.4 µM) | 0.13 µg/mL (≈ 0.181 µM) | 2 µg/mL (≈ 2.79 µM) | 4 µg/mL (≈ 5.58 µM) | 0.06 µg/mL (≈ 0.0837 µM) | 0.5 µg/mL (≈ 0.698 µM) | 2 µg/mL (≈ 2.79 µM) | CC1(C)S[C@@H]2[C@H](NC(=O)C(NC(=O)Nc3cnc(Nc4ccc(S(=O)(=O)NCCO)cc4)nc3O)c3ccc(O)cc3)C(=O)N2[C@H]1C(=O)O (some centres unmarked) [F] | ~5 mg/kg | 10 to 20 mg/kg
0.5 µg/mL (≈ 0.685 µM) | 0.12 µg/mL (≈ 0.164 µM) | 1 µg/mL (≈ 1.37 µM) | 1 µg/mL (≈ 1.37 µM) | 0.25 µg/mL (≈ 0.343 µM) | 2 µg/mL (≈ 2.74 µM) | 2 µg/mL (≈ 2.74 µM) | 0.06 µg/mL (≈ 0.0822 µM) | 0.5 µg/mL (≈ 0.685 µM) | 1 µg/mL (≈ 1.37 µM) | CC1(C)S[C@@H]2[C@H](NC(=O)C(NC(=O)Nc3cnc(Nc4ccc(S(=O)(=O)NCC(N)=O)cc4)nc3O)c3ccc(O)cc3)C(=O)N2[C@H]1C(=O)O (some centres unmarked) [G] | ~5 mg/kg | 
0.5 µg/mL (≈ 0.65 µM) | 0.25 µg/mL (≈ 0.325 µM) | 2 µg/mL (≈ 2.6 µM) | 1 µg/mL (≈ 1.3 µM) | 0.25 µg/mL (≈ 0.325 µM) | 2 µg/mL (≈ 2.6 µM) | 2 µg/mL (≈ 2.6 µM) | 0.06 µg/mL (≈ 0.0779 µM) | 0.5 µg/mL (≈ 0.65 µM) | 1 µg/mL (≈ 1.3 µM) | CC1(C)S[C@@H]2[C@H](NC(=O)C(NC(=O)Nc3cnc(Nc4ccc(S(=O)(=O)N5CCN(C=O)CC5)cc4)nc3O)c3ccc(O)cc3)C(=O)N2[C@H]1C(=O)O (some centres unmarked) [H] |  | 
0.5 µg/mL (≈ 1.08 µM) | 8 µg/mL (≈ 17.3 µM) | 8 µg/mL (≈ 17.3 µM) | 8 µg/mL (≈ 17.3 µM) | 4 µg/mL (≈ 8.67 µM) | 32 µg/mL (≈ 69.3 µM) | 32 µg/mL (≈ 69.3 µM) | 2 µg/mL (≈ 4.33 µM) | 8 µg/mL (≈ 17.3 µM) | 32 µg/mL (≈ 69.3 µM) | CC1(C)S[C@@H]2[C@H](NC(=O)[C@H](NC(=O)N3CCNC3=O)c3ccccc3)C(=O)N2[C@H]1C(=O)O [J, azlocillin, reference compound] | > 100 mg/kg | > 100 mg/kg

More lines, now with the values behind:

Compound | MIC [1] | MIC [2] | MIC [3] | MIC [4] | MIC [5] | MIC [6] | MIC [7] | MIC [8] | MIC (Proteus rettgeri BC 7) | MIC [9] | ED50 (E. coli ATCC 11775) | ED50 [10]
CC1(C)S[C@@H]2[C@H](NC(=O)C(NC(=O)Nc3cnc(Nc4ccc(S(=O)(=O)NC5=NCCCN5)cc4)nc3O)c3ccc(O)cc3)C(=O)N2[C@H]1C(=O)O (some centres unmarked) [A] | 0.25 µg/mL (≈ 0.331 µM) | 0.25 µg/mL (≈ 0.331 µM) | 1 µg/mL (≈ 1.32 µM) | 1 µg/mL (≈ 1.32 µM) | 0.5 µg/mL (≈ 0.662 µM) | 2 µg/mL (≈ 2.65 µM) | 2 µg/mL (≈ 2.65 µM) | 0.06 µg/mL (≈ 0.0795 µM) | 0.5 µg/mL (≈ 0.662 µM) | 0.5 µg/mL (≈ 0.662 µM) | 0.6 mg/kg | 2.1 mg/kg
CC1(C)S[C@@H]2[C@H](NC(=O)C(NC(=O)Nc3cnc(Nc4ccc(S(=O)(=O)NC5=NCCN5)cc4)nc3O)c3ccc(O)cc3)C(=O)N2[C@H]1C(=O)O (some centres unmarked) [B] | 0.5 µg/mL (≈ 0.675 µM) | 0.25 µg/mL (≈ 0.337 µM) | 2 µg/mL (≈ 2.7 µM) | 1 µg/mL (≈ 1.35 µM) | 0.25 µg/mL (≈ 0.337 µM) | 2 µg/mL (≈ 2.7 µM) | 4 µg/mL (≈ 5.4 µM) | 0.06 µg/mL (≈ 0.081 µM) | 0.5 µg/mL (≈ 0.675 µM) | 0.1 µg/mL (≈ 0.135 µM) | 0.7 mg/kg | 1.9 mg/kg
CC1(C)S[C@@H]2[C@H](NC(=O)C(NC(=O)Nc3cnc(Nc4ccc(S(=O)(=O)NC5=NCCS5)cc4)nc3O)c3ccc(O)cc3)C(=O)N2[C@H]1C(=O)O (some centres unmarked) [C] | 0.25 µg/mL (≈ 0.33 µM) | 0.12 µg/mL (≈ 0.158 µM) | 1 µg/mL (≈ 1.32 µM) | 2 µg/mL (≈ 2.64 µM) | 0.25 µg/mL (≈ 0.33 µM) | 1 µg/mL (≈ 1.32 µM) | 1 µg/mL (≈ 1.32 µM) | 0.06 µg/mL (≈ 0.0792 µM) | 0.25 µg/mL (≈ 0.33 µM) | 0.5 µg/mL (≈ 0.66 µM) | ~3 mg/kg | 17 mg/kg
CC1(C)S[C@@H]2[C@H](NC(=O)C(NC(=O)Nc3cnc(Nc4ccc(S(=O)(=O)NC5=NCCO5)cc4)nc3O)c3ccc(O)cc3)C(=O)N2[C@H]1C(=O)O (some centres unmarked) [D] | 0.5 µg/mL (≈ 0.674 µM) | 0.25 µg/mL (≈ 0.337 µM) | 1 µg/mL (≈ 1.35 µM) | 1 µg/mL (≈ 1.35 µM) | 0.25 µg/mL (≈ 0.337 µM) | 2 µg/mL (≈ 2.7 µM) | 4 µg/mL (≈ 5.39 µM) | 0.06 µg/mL (≈ 0.0809 µM) | 0.25 µg/mL (≈ 0.337 µM) | 1 µg/mL (≈ 1.35 µM) | ~2 mg/kg | 
